Results reported in patent publication US20250073680A1, “METHOD OF REGENERATING BIS(IMINOGUANIDINE) CARBON DIOXIDE SORBENTS FROM CARBONATE OR BICARBONATE SALT THEREOF” (UT-Battelle, LLC, priority 2023, published 2025).
“Also recorded” adds a separate entry of the source.

Assays:
[1] = Stability after steam stripping by NMR and XRD; type: physicochemical; details: 1H-NMR and XRD versus synthesized / conventionally regenerated sample
Protocol: Infrared sensors for CO2 concentration measurements in the inlet and outlet gas streams were used. For gas sample measurements, the exhaust gas passed through a water trap and hydrophobic filter (CM-0118) prior to reaching the sensor to avoid excess water. A total inorganic carbon analyzer containing an acidification module and a CO2 coulometer module was used to determine inorganic carbon content in solid samples. Air at 100 mL/min was used as a carrier gas, and calculations were based on sample weight. A 1 M Na2CO3 solution was used as a standard. Solid samples (40-60 mg) were weighed out into small Teflon cups, and the entire cup was transferred into a 15-mL sample flask. A volume of 5 mL of 2 M HCl acid was dispensed to acidify each sample. Solid samples were analyzed in duplicates. X-ray diffraction (XRD) measurements were conducted using an X-ray diffraction system equipped with a solid-state detector. For the XRD measurements, X-rays were generated at 45 kV/40 mA, and the X-ray beam wavelength was λ=1.5406 A (Cu Kα radiation). Nuclear magnetic resonance (NMR) measurements were performed to quantify solvent degradation after regeneration. The 1D spectra were recorded on a 400 MHz NMR spectrometer equipped with a 5 mm BBI or BBO probe. A residual solvent peak was used as an internal reference (DMSO-d6: 2.50 ppm). […]

[2] = total regeneration energy; cited from earlier work
[3] = Aqueous solubility of regenerated sorbent; type: physicochemical; details: free base

SMILES	chemical stability after direct steam regeneration [1]	regeneration energy [2]	aqueous solubility [3]
N=C(N)NN=CC=NNC(=N)N [GBIG, glyoxal-bis(iminoguanidine)]	no chemical degradation occurred	–	–
N=C(N)N/N=C/C=N/NC(=N)N [GBIG-C, GBIG carbonate]	–	3.4 kJ/g-CO2	–
CC(/C=N/NC(=N)N)=N\NC(=N)N [MGBIG, methylglyoxal-bis(iminoguanidine)]	no chemical degradation occurred	–	completely dissolved in water; also recorded: high aqueous solubility
CC(/C=N/NC(=N)N)=N\NC(=N)N [MGBIG-C, methylglyoxal-bis(iminoguanidine) (MGBIG) carbonate]	–	7.0-10.2 kJ/g-CO2	–
